# Measurements as given in patent publication US20030022158A1, “Peptides from the TT virus sequence and monospecific antibodies binding to the TT virus” (priority 1999, published 2003).
# Test system: human IgG antibodies in human serum samples
# Assay: EIA of human antibody reactivities to overlapping synthetic peptides of TTV ORF1 and ORF2 (Tables 2 and 3)
# Type: binding
# Details: ORF2 peptide, EIA
# Text: Overlapping peptides (18 amino acids in length containing an 8 amino acid overlap) corresponding to regions of the ORFI and ORF2 of TTV (TABLE 1; Genebank accession no AB008394) were produced by a multiple peptide synthesizer (Syro, Syntex, Germany) using standard Fmoc chemistry (Sallberg et al., Immunology Letters, 30:59 68 (1991), herein expressly incorporated by reference in its entirety).
# The EIAs used to identify which peptides interacted with human sera followed protocols known in the art. (See Zhang et al., J Gen Virol, 78:2735-2746 (1997), herein expressly incorporated by reference in its entirety). Briefly, microplates (Nunc, Denmark) were coated for 48 hours with synthetic peptides at a concentration of 10 μg/ml in 0.05M sodium carbonate buffer pH 9.6. After blocking for 2 hours at room temperature with phosphate buffered saline containing 1% bovine serum albumin, 2% goat serum and 0.05% Tween 20 (dilution buffer) the plates were incubated with human sera diluted 1:100 in dilution buffer. Bound human IgG was detected by incubation with anti-human IgG antibodies conjugated to alkaline phosphatase (Sigma Chemicals, St. Louis, Mo.). The plates were developed by the addition of […] (Sigma) and the optical densities were determined at 405 nm.
sequence,measurement,value
"EDGGAGGDADHGGAAGGP (Peptide Immunogen) [ORF2 peptide 19, overlapping synthetic peptide of TTV ORF2]",number of tested human sera reactive with the peptide,Two of the tested human sera were reactive
